This note sets out measurements from patent publication US11413267B2, “Methods and compositions for inhibition of ATR and FANCD2 activation” (priority 2012, dated 2022).

Structures are written as SMILES.

In one data set the test system is MDA-MB-231 cells. Put plainly: Mitotic entry assay (phospho-histone H3 Ser10, nocodazole trap, flow cytometry). The class given is cell-based, human. An excerpt: Of these, the G2/M checkpoint involves ATM and ATR in collaboration, whereas the S/M checkpoint is mediated solely by ATR. To maintain genetic integrity, ATR can prevent premature mitotic entry in the event of incomplete DNA replication or unrepaired DNA damage. In order to evaluate the effect of benzopyran-4-one derivatives on these ATR-associated DNA damage checkpoints, we observed the effect of benzopyran-4-one derivatives on mitotic entry following hydroxyurea or cisplatin treatment.
(§1) DNA replication was measured using a Click-it EdU assay kit, which is based on incorporation of the thymidine analogue 5-ethynyl-2′-deoxyuridine (EdU) into DNA during replication (Invitrogen). Then, 10 μM EdU was added to the cell culture medium 30 min before the cells were harvested and fixed in 4% paraformaldehyde. After cycloaddition, EdU was detected with Alexa Fluor 647 using click reaction catalyzed by Cu (II), and the DNA content was stained by CellCycle 405-blue. To assay the mitotic entry, cells were treated with the indicated drugs and trapped in 70 nM nocodazole for 16 h, and antibodies against phospho-histone H3 Ser10 and PI were used to stain the mitotic cells and DNA content, respectively. An FITC Annexin V apoptosis detection kit was used to characterize the phenotype of cell death based on PI and Annexin V double staining (BD Pharmingen, San Diego, Calif.). Fluorescence-labeled cells were subsequently analyzed by the BD LSR II flow cytometer with a suitable selection of excitation and emission wavelengths. The percentages of different fluorescent cells were analyzed using WinMDI Ver. 2.9.
On the technique in general: A flow cytometer gives signals particle by particle.

The subject of data set [1] is ATM-mediated Chk2 phosphorylation. Briefly: Immunoblot of DNA damage-induced Chk2 phosphorylation / ATM autophosphorylation. Type of data set: cell-based, human. Conditions: after H2O2 damage. An excerpt: (§2) We hypothesized that genes with functions associated with DNA damage checkpoints and/or DNA repair might be targeted by benzopyran-4-one derivatives. To test this hypothesis, we assessed the effects of benzopyran-4-one derivatives on DDR induced by H2O2. […] In response to DNA double-strand breaks (DSBs), FANCD2 is known to be monoubiquitinated on K561 (FANCD2-Ub) in an ATR-dependent manner to stimulate repair (Andreassen P R, et al. Genes Dev 2004).
(§3) To elucidate the specificity of the benzopyran-4-one derivatives inhibition on ATR-mediated signaling, we compared the change between cells treated with benzopyran-4-one derivatives or the ATM-specific inhibitor KU55933 before the induction of DDR.
(§4) MDA-MB-231 (breast adenocarcinoma; ATCC HTB-26, BCRC 60425) and A549 (lung adenocarcinoma; ATCC CCL-185, BCRC 60074) human cell lines were purchased from Bioresource Collection and Research Center (BCRC, Hsinchu, Taiwan), and were authenticated by American Type Culture Collection (ATCC, Manassas, Va.). U2OS (osteosarcoma), HeLa (cervical adenocarcinoma), and HEK 293T (embryonic kidney cells) human cell lines were provided by Dr. Sheau-Yann Shieh (Institute of Molecular Biology, Academia Sinica, Taipei, Taiwan). Cells were maintained in Dulbecco's modified Eagle's medium (DMEM, Sigma-Aldrich) supplemented with 10% fetal bovine serum (FBS) (Gibco). […] For UV irradiation treatment, the cells were irradiated for 10 J/m^2 by a cross-linker (UVP) 1 h prior to analysis.
(§5) Cell lysate preparations, gel electrophoresis, and immunoblotting were performed as previously described (23). The binding of primary antibodies were detected by horseradish peroxidase-coupled secondary antibodies (Jackson ImmunoResearch) followed by enhanced chemiluminescence (ECL) (Millipore). The images of non-saturated bands were captured using a luminescent image analyzer (LAS-4000 mini; Fujifilm). The antibodies used in this study are listed in supplementary materials.
Background: A western blot detects proteins with antibodies after separation by electrophoresis.

Another data set deals with DNA replication. Briefly: EdU incorporation assay of DNA replication. The class given is cell-based. The settings on record: 10 μM. As for the experimental part:
as §1, with “5-ethynyl-2'-deoxyuridine” for “5-ethynyl-2′-deoxyuridine”, “To assay the mitotic entry, cells were treated with the indicated drugs and trapped in 70 nM nocodazole for 16 h, and antibodies against phospho-histone H3 Ser10 and PI were used to stain the mitotic cells and DNA content, respectively.” left out

In data set [2] the test system is ATR-dependent Chk1 phosphorylation. Briefly: Immunoblot of DNA damage-induced Chk1 phosphorylation. The settings on record: after H2O2 damage. Type of data set: cell-based, human.
Excerpt: as §2, §3, §4, §5

For the next data set, the system named is CHO cells. Put plainly: In vitro chromosome aberration test. The settings on record: 2.00 μM. The class given is cell-based, Chinese Hamster. As for the experimental part: To test this hypothesis, we investigated the cytogenetic effect of Protoapigenone (I-1) on CHO cells (FIG. 1).
In brief, 5×10^5 Chinese Hamster Ovary (CHO) cells were seeded in 60-mm dishes 1 d before the experiment. Protoapigenone (I-1)-induced structural chromosomal changes after 20 h were compared with that of the cells cultured in 2 μM mitomycin C. At 18 h after Protoapigenone (I-1), 0.1 μg/mL colchicine was added for 2 h, and metaphase cells were collected by shaking them off the dishes. Mitotic cells were treated with 0.5% KCl for 10 min and fixed with a 3:1 mixture of methanol: glacial acetic acid. The cells were then spread on slides for chromosome staining with 5% Giemsa solution. We then analyzed the chromosome structure of 200 well-spread metaphase cells (100 metaphase cells/experiment) under a 100× oil immersion objective.

Setting [3] is: DNA-damaging agent alone (Control group column).

On to `N.N.[Cl][Pt][Cl]` [Cisplatin], for which the “The percentage of mitotic cells” value with MDA-MB-231 cells (setting [3]) was 5.35 ± 0.07%.
In the case of `O=c1cc(-c2cccc3c2Sc2ccccc2S3)oc(N2CCOCC2)c1` [KU55933], the “ATM-mediated Chk2 phosphorylation” value in data set [1] was “strongly inhibited”. Besides, the “Percentage of EdU incorporation compared with control group” value in the data set with DNA replication is “not”. For the same compound, the “Percentage of mitotic cells in cisplatin-treated cells (G2/M checkpoint), in words” value with MDA-MB-231 cells (cisplatin-treated cells) is reported as “increased the percentage of mitotic cells”. Also, the “The percentage of mitotic cells” value with MDA-MB-231 cells (compound alone (Control group, no DNA-damaging agent)) is on record as 20.29 ± 1.48%; in the data set on MDA-MB-231 cells (compound with Cisplatin (G2/M checkpoint)), 9.70 ± 0.25%; with MDA-MB-231 cells (compound with Hydroxyurea (S/M checkpoint)), 11.19 ± 0.76%. Besides, the “Effect on ATR-mediated Chk1 phosphorylation” value in data set [2] is “small”.
In the case of `CO[C@@]12[C@H](COC(N)=O)C3=C(C(=O)C(C)=C(N)C3=O)N1C[C@@H]1N[C@@H]12` [Mitomycin C, reference compound], in the data set on CHO cells (200 cells per treatment), the “Chromatid break (No.)” value is listed as 2 No, the Chromatid deletion worked out at 3 No, the Complex rerrangement is 2 No and the Dicentric turned out to be 1 No. Moreover, in the data set with CHO cells (200 cells per treatment), the Polyploid came out at 0 No, the Pulverized cell was 5 No, the Quadriradial was 29 No and the Ring worked out at 0 No. Besides, the Triradial in the data set with CHO cells (200 cells per treatment) turned out to be 42 No. For the same compound, the “Average aberrant metaphases (%)” value with CHO cells (* significant vs. control by t-test) is reported as 42.0 * %.
On to `NC(=O)NO` [Hydroxyurea], for which the “The percentage of mitotic cells” value in the data set on MDA-MB-231 cells (setting [3]) worked out at 4.46 ± 0.67%.
